PMC9306349, “A Process for the Design and Development of Novel Bone Morphogenetic Protein-7 (BMP-7) Mimetics With an Example: THR-184” (Frontiers in Pharmacology, 2022)
Read-outs that look alike come from different tables or passages of the source. Marks after values point to notes of the source that are not given here. Bridge positions count the residues as written; N and C are the ends. Peptide text beside a SMILES is read from it.

What was measured:
wound healing = system: wound healing
Description: (§1) TABLE 2 THR-184 overview.

hemodynamics = system: hemodynamics
Description: as §1

bleeding time = system: bleeding time
Description: as §1

[1] = system: adult healthy male and female volunteers; settings: ref Himmelfarb et al., 2018, cited from earlier work
Description: In the first study, THR-P-427 (SAD), the drug (THR-184) was administered as slow intravenous infusions in a total of 40 adult healthy male and female volunteers. The study drug or placebo was administered once on the morning after a 10-h overnight fast. The solution was administered by slow injection via an indwelling catheter, at an infusion rate of 1 ml/min over 60 min. Five dose levels were studied: 0.3 mg/kg, 1 mg/kg, 3 mg/kg, 6 mg/kg and 10 mg/kg. Adverse events were recorded continuously during the study.

cancer growth = test: Preclinical overview: cancer growth
Description: as §1

[2] = system: adult healthy male and female volunteers; settings: ref Himmelfarb et al., 2018, cited from earlier work; remark: listed apart in the source
Description: In the second study, THR-P-428 (MAD), THR-184 was administered as a slow intravenous infusion in a total of 24 adult healthy male and female volunteers, once daily over five consecutive days. THR-184 or the placebo was administered on the morning after a 10-h overnight fast. The solution was administered by slow injection via an indwelling catheter, at an infusion rate of 1 ml/min over 60 min. Three dose levels were studied: 0.3 mg/kg, 1 mg/kg, and 3 mg/kg. Adverse events were recorded continuously during the study.

Off-target survey = settings: 114 targets surveyed
Description: as §1

[3] = Stability of THR-184 in human plasma with and without ACE inhibitor; assay type: in vitro ADME; settings: compound administered with an ACE inhibitor, read-out: serum half-life
Description: Protease degradation of drug candidates can shorten their in-plasma half-life to the point that therapeutic exposure is severely compromised resulting in loss of efficacy.

[4] = system: patients having major cardio-vascular surgery requiring the cardiopulmonary pump; test: Phase II clinical trial NCT01830920, AKI after cardio-vascular surgery with cardiopulmonary pump; assay type: in vivo, human; settings: clinical trial pharmacokinetic data; large variability of C Max and AUC
Description: The objective of the Phase II clinical trial, NCT01830920, ([Thrasos Innovation, Inc, 2013]), was to establish the dose, safety, and preliminary efficacy of THR-184 in a targeted patient population having major cardio-vascular surgery requiring the use of the cardiopulmonary pump The primary outcome of this clinical trial was the proportion of patients who develop AKI according to the KDIGO criteria ([Kidney Disease: Improving Global Outcomes (KDIGO) Acute Kidney Injury Work Group, 2012]). […] Use of urinary creatinine is not part of the KDIGO AKI criteria, but rather it is the urinary output that is part of the AKI definition. […] The clinical trial included serum samples for the analysis of KIM-1 and NGAL as exploratory endpoints, but there are as yet no published results from those samples.
SAE: number of Serious Adverse Events.

[5] = cited from earlier work
[6] = system: patients having major cardio-vascular surgery requiring the cardiopulmonary pump; settings: ref Himmelfarb et al., 2018, cited from earlier work
CYP450 2C19 = CYP450 2C19 (Homo sapiens, UniProt P33261); test: CYP450 isoform effect; assay type: in vitro ADME
Sequence of CYP450 2C19 (P33261 whole entry, canonical isoform): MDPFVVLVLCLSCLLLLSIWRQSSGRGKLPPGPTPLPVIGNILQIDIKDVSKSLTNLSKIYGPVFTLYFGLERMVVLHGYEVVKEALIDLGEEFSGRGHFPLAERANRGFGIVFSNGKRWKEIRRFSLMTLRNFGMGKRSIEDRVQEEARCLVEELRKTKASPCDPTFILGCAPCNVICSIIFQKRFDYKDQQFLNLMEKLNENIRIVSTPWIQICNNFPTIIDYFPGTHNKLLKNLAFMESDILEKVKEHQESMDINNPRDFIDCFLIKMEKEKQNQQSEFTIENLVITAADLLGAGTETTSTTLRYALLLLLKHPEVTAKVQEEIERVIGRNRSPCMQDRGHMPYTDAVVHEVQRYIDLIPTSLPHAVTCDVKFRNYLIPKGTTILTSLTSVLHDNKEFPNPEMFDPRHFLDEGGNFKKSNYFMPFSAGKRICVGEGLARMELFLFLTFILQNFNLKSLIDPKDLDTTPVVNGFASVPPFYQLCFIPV
Description: as §1

CYP450 2D6 = CYP450 2D6 (Homo sapiens, UniProt P10635); test: CYP450 isoform effect; assay type: in vitro ADME
Sequence of CYP450 2D6 (P10635 whole entry, canonical isoform): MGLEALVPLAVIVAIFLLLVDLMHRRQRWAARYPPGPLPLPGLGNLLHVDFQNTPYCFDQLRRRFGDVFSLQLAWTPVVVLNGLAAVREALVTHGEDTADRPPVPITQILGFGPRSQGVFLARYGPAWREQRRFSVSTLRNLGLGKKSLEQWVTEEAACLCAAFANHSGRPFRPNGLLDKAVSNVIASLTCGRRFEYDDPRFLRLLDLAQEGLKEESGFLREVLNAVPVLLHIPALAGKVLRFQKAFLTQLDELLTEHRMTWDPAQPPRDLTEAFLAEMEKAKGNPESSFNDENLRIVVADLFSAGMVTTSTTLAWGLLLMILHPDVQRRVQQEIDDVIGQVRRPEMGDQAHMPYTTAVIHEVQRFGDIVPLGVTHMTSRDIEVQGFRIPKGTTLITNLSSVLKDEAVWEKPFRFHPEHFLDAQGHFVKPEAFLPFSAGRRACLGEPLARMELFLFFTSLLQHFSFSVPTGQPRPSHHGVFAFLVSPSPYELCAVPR
Description: as §1

CYP450 3A4 = CYP450 3A4 (Homo sapiens, UniProt P08684); test: CYP450 isoform effect; assay type: in vitro ADME
Sequence of CYP450 3A4 (P08684 whole entry, canonical isoform): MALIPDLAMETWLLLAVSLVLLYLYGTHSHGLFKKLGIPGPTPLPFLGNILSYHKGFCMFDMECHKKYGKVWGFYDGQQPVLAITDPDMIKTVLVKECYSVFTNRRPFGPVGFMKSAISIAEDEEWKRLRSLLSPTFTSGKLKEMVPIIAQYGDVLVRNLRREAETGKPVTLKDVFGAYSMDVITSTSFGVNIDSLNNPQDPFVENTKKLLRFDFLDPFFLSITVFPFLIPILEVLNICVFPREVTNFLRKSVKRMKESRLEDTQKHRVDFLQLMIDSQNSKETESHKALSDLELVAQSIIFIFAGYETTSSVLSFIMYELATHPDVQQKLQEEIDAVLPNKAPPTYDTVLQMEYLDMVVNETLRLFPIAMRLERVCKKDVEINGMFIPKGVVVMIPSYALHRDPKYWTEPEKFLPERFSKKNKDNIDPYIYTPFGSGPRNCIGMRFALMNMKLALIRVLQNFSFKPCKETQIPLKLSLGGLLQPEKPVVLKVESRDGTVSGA
Description: as §1

CYP450 2C9 = CYP450 2C9 (Homo sapiens, UniProt P11712); test: CYP450 isoform effect; assay type: in vitro ADME
Sequence of CYP450 2C9 (P11712 whole entry, canonical isoform): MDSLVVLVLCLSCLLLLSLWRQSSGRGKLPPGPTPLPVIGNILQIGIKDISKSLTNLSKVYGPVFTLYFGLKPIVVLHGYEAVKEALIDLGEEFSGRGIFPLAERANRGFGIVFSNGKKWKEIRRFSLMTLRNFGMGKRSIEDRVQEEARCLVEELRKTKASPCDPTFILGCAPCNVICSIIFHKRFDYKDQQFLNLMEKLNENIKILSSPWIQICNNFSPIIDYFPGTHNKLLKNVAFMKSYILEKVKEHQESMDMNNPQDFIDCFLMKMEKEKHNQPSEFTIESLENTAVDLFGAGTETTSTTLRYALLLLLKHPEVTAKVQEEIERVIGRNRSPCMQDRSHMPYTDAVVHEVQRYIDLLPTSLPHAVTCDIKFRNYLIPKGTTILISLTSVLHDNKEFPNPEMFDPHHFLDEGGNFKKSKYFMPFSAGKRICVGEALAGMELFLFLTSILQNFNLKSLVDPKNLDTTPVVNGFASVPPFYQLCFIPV
Description: as §1

CYP450 1A2 = molecular target: T1, CYP450 1A2 (Homo sapiens, UniProt P05177); assay type: in vitro ADME
T1 sequence (P05177 1-516): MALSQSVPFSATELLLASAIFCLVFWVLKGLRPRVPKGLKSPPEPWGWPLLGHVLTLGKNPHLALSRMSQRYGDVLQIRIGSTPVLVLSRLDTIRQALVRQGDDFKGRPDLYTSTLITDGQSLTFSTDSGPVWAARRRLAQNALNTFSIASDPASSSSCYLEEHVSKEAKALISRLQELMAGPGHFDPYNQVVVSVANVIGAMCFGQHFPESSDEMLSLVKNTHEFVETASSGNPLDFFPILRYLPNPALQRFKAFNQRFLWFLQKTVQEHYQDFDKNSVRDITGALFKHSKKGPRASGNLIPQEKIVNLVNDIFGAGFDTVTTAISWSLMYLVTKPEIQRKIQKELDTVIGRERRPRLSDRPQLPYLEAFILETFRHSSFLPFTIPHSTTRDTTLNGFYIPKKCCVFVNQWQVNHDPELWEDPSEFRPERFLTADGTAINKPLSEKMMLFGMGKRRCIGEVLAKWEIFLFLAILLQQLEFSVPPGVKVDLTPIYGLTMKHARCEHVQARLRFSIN
Description: as §1

ectopic bone formation = test: Rat implant assay of ectopic bone formation; assay type: in vivo; settings: implanted in muscle pocket (Hydrogel or collagen carrier device), implants removed day 14, histology toluidine blue
Description: FIGURE 2 Failure of BMP-7 mimetic (THR-123) to induce ectopic bone formation in rat implant assay: This assay is based on the ability of BMP-7 to induce ectopic bone formation in the rat and was carried out as described earlier (The Journal of Biological Chemistry, Vol. 267, pp. 20352-20362,1992) to determine in vivo efficacy of THR-123. Briefly, bovine bone matrix (collagen carrier)/BMP-7 or Hydrogel/BMP-7 or Hydrogel/THR-123, devices (all lyophilized) were implanted in muscle pocket. […] This work was supported by Thrasos Therapeutics.

[7] = occurred equally in placebo and THR-184 treated subjects
[8] = Arm 4 High Dose 0.46/0.02 mg/kg
[9] = Arm 5 Highest Dose 0.46/0.46 mg/kg

For CC(C)C[C@@H]1NC(=O)[C@H](C(C)C)NC(=O)[C@H](CO)NC(=O)[C@H](CO)NC(=O)[C@H](CO)NC(=O)[C@H](CC(N)=O)NC(=O)[C@H](CC(=O)O)NC(=O)[C@H](Cc2ccc(O)cc2)NC(=O)[C@H](Cc2ccc(O)cc2)NC(=O)[C@@H](N)CSSC[C@@H](C(=O)N[C@@H](CCCCN)C(=O)N[C@@H](CCCNC(=N)N)C(=O)N[C@@H](Cc2ccc(O)cc2)C(=O)N[C@@H](CCCNC(=N)N)C(=O)N[C@@H](CO)C(=O)O)NC1=O [THR-184] (H-CYYDNSSSVLCKRYRS-OH; disulfide 1-11), the wound healing (wound healing) was “Does not inhibit wound healing”, the hemodynamics (hemodynamics) was “Does not affect hemodynamics” and the bleeding time (bleeding time) was “Does not affect bleeding time”. For the same molecule, the “most frequently observed adverse event” value [1, 7] was “headache”, the serious adverse events ([1]; single 60 min iv infusion, 0.3-10 mg/kg, healthy volunteers) was “no serious adverse events observed” and the cancer growth (cancer growth) was “Does not promote cancer growth”. For the same molecule, the serious adverse events ([2]; 60 min iv infusion once daily for five days, 0.3-3 mg/kg, healthy volunteers) was “no serious adverse events observed”, the “most frequently observed adverse event” value [2, 7] was “somnolence” and the off-target interactions (Off-target survey) was “Has no off-target interactions (114 targets surveyed)”. The half-life [3] was 1 h, the “relationship of dose to serum levels” value [4] was “clear relationship of the dose to serum levels of the compound” and the “Human Plasma Stability: t1/2” value [5] was 6 min. For the same molecule, the Deaths ([6]; Arm 2 Low Dose 0.02/0.02 mg/kg) was 4 #, the “SAE > 1 (Serious Adverse Events)” value ([6]; Arm 2 Low Dose 0.02/0.02 mg/kg) was 46.7% and the Deaths ([6]; Arm 3 Mid Dose 0.12/0.02 mg/kg) was 5 #. For the same molecule, the “SAE > 1 (Serious Adverse Events)” value ([6]; Arm 3 Mid Dose 0.12/0.02 mg/kg) was 59.6%, the Deaths [6, 8] was 4 # and the “SAE > 1 (Serious Adverse Events)” value [6, 8] was 42.0%. The Deaths [6, 9] was 5 #, the “SAE > 1 (Serious Adverse Events)” value [6, 9] was 41.0% and the “effect on CYP450 2C19” value (CYP450 2C19) was “Has no effect on key CYP450 isoforms (1A2, 2C19, 2C9, 2D6, 3A4)”. The “effect on CYP450 2D6” value (CYP450 2D6) was “Has no effect on key CYP450 isoforms (1A2, 2C19, 2C9, 2D6, 3A4)”, the “effect on CYP450 3A4” value (CYP450 3A4) was “Has no effect on key CYP450 isoforms (1A2, 2C19, 2C9, 2D6, 3A4)” and the “effect on CYP450 2C9” value (CYP450 2C9) was “Has no effect on key CYP450 isoforms (1A2, 2C19, 2C9, 2D6, 3A4)”. For the same molecule, the “effect on CYP450 1A2” value (CYP450 1A2) was “Has no effect on key CYP450 isoforms (1A2, 2C19, 2C9, 2D6, 3A4)”.

B1: BMP-7: Bone Morphogenetic Protein-7, positive control in rat implant assay (protein, UniProt P18075 293-431, looked up)
Bone morphogenetic protein 7: STGSKQRSQNRSKTPKNQEALRMANVAENSSSDQRQACKKHELYVSFRDLGWQDWIIAPEGYAAYYCEGECAFPLNSYMNATNHAIVQTLVHFINPETVPKPCCAPTQLNAISVLYFDDSSNVILKKYRNMVVRACGCH
With B1 the ectopic bone formation (ectopic bone formation) was “induced bone formation”.
